From patent US20260158009A1 (GENZYME CORPORATION, priority 2023, published 2026)

What was measured:
U937 cells = assay: Cellular assay in U937 cells: activity of RIPK1 inhibitors on TNFα/zVAD.fmk-induced cell death (necroptosis), CellTiter 96 AQueous (MTS) readout; format: cell-based; conditions: Homo sapiens, U-937
From the text: Upon TNF-Receptor I ligation, Ser/Thr kinase RIPK1 is recruited to a transient receptor complex 1. Upon modification of RIPK1 which promotes activation of RIPK1, complex IIb can form, that involves recruitment of RIPK3 and MLKL (mixed lineage-kinase domain-like protein) which then translocates from the cytosol to the plasma membrane to execute cell death (Cai, Z. et al, Nat. Cell Biol. (2014) 16:55-65).
Cell death was quantified in 96 well plates by determination of the amount of live cell using a CellTiter 96 AQueous reagent (Promega), a calorimetric method to measure the number of live cells by reducing tetrazolium compound [3-(4,5-dimethylthiazol-2-yl)-5-(3-carboxymethoxyphenyl)-2-(4-sulfophenyl)-2H-tetrazolium, inner salt; MTS] into formazan. Absorbance of formazan was read at 490 nm. The inhibitory activity of the test compound was quantified in a concentration response curve (CRC) experiment.
Compounds were obtained as 10 mM stock solutions and were diluted 1 to 10 volumes with DMSO to yield a 1 mM solution. From this solution 2 μl were diluted with 998 μl growth medium. 100 μl of 2 μM compound solution was further diluted sequentially with a dilution factor of 2.5 by adding 150 μl growth medium. A total of 10 concentrations were tested ranging from 10 μM to 0.26 nM or from 1 μM to 0.07 nM.
U937 cells were cultured in RPMI1640 Glutamax and 10% heat inactivated FBS. 50 μl cell suspension containing 1×10^6 cells/ml supplemented with 50 μM zVAD.fmk (Benzyloxycarbonyl-Val-Ala-Asp (OMe) fluoromethylketone) and 100 ng/ml recombinant human TNF[…] were dispensed in each well of a 96-well plate. 50 μl of compound dilutions (described in Cellular assay in U937 cells) were added and the cell suspension incubated overnight (18 to 24 hrs) at 37° C., 5% CO2 in a humidified atmosphere (95% rH). High (no compound) and low control (no TNF[…], zVAD.fmk) were tested with 7 replicates; all compound concentrations were tested in duplicates on each experimental plate.
CellTiter 96 Aqueous reagent was mixed (100 μl PMS (phenazine methosulfate) solution/2 ml MTS (3-(4,5-[…])-5-(3-carboxymethoxyphenyl)-2-(4-sulfophenyl)-2H-tetrazolium, inner salt) solution) and 20 μl were added per well. After 4 hrs incubation at 37° C. (5% CO2 95% rH) optical density was measured at 490 nm on a microplate reader (Tecan Infinite M1000).
The % inhibition is expressed as percentage of the maximal inhibition value obtained in the absence of TNFα/zVAD.fmc.

[1] = target: T1, hRIPK1 (aa 1-375) fusion protein (Homo sapiens, UniProt Q13546); assay: ADP-Glo kinase assay: catalytic activity of RIPK1 (autophosphorylation, conversion of ATP to ADP); format: biochemical
T1 construct: hRIPK1 (aa 1-375) fusion protein
T1 sequence (Q13546 1-375): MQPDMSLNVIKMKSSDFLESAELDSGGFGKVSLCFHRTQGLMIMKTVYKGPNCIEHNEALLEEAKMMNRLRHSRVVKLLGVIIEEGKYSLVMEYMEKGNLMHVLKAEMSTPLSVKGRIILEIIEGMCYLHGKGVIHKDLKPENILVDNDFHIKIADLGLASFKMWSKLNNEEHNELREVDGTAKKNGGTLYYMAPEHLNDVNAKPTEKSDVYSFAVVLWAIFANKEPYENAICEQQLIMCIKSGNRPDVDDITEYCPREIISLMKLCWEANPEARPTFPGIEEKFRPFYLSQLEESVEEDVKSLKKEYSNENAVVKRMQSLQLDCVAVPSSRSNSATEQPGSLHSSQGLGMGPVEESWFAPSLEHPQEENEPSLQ
Procedure: The catalytic activity of RIPK1 was measured by monitoring the conversion of Adenosine triphosphate (ATP) to Adenosine diphosphate (ADP) due to autophosphorylation using an ADP-Glo kinase kit (Promega, catalog no. V9104).
In detail, 2 μl recombinantly produced hRIPK1 (aa 1-375) fusion protein (end concentration 3.6 μg/ml) and 2 μl compound (end concentration 33300-1.69 nM; DMSO end concentration 1%) were incubated for 30 minutes at room temperature and then 2 μl ATP (ADP Glo kit, end concentration 50 μM) were added. After another 240 minutes incubation at room temperature, 5 μl Promega ADP-Glo reagent I was added to quench the reaction and deplete unconsumed ATP. After an incubation period of 30 minutes, 10 μl Promega ADP-Glo detection reagent II was added resulting in conversion of ADP to ATP, which generates a light-reaction between luciferase and luciferin. Luminescence was quantified after 30 minutes with a Pherastar FS (BMG LABTECH, Ortenberg).
The adjustment was obtained by nonlinear regression using the Levenberg Marquardt algorithm.

SMILES | IC50 [1] | IC50 (U937 cells)
COc1cncc([C@@H]2CCON2C(=O)[C@H]2CC[C@H](Cn3ncc4ccc(C(N)=O)cc43)CC2)n1 [Compound 201, trans-1-[[4-[(3S)-3-(6-methoxypyrazin-2-yl)isoxazolidine-2-carbonyl]cyclohexyl]methyl]indazole-6-carboxamide] | 62 nM | 190 nM
NC(=O)c1ccc2cn(C[C@H]3CC[C@H](C(=O)N4OCC[C@H]4c4cnccn4)CC3)nc2c1 [Compound 228, trans-2-[[4-[(3S)-3-pyrazin-2-ylisoxazolidine-2-carbonyl]cyclohexyl]methyl]indazole-6-carboxamide] | 65 nM | 191 nM
NC(=O)c1ccc2cnn(C[C@H]3CC[C@H](C(=O)N4OCC[C@H]4c4ccccn4)CC3)c2c1 [Compound 230, trans-1-[[4-[(3S)-3-(2-pyridyl)isoxazolidine-2-carbonyl]cyclohexyl]methyl]indazole-6-carboxamide] | 131 nM | 376 nM
Cc1nc([C@@H]2CCON2C(=O)[C@H]2CC[C@H](Cn3cc4ccc(C(N)=O)cc4n3)CC2)cs1 [Compound 233, trans-2-[[4-[(3S)-3-(2-methylthiazol-4-yl)isoxazolidine-2-carbonyl]cyclohexyl]methyl]indazole-6-carboxamide] | 114 nM | 384 nM
Cc1nc([C@@H]2CCON2C(=O)[C@H]2CC[C@H](Cn3ncc4ccc(C(N)=O)cc43)CC2)cs1 [Compound 234, trans-1-[[4-[(3S)-3-(2-methylthiazol-4-yl)isoxazolidine-2-carbonyl]cyclohexyl]methyl]indazole-6-carboxamide] | 49 nM | 126 nM
Cn1cc(C[C@H]2CC[C@H](C(=O)N3OCC[C@H]3c3cc(F)cc(C#N)c3)CC2)nn1 [Compound 258, trans-3-fluoro-5-[(3S)-2-[4-[(1-methyltriazol-4-yl)methyl]cyclohexanecarbonyl]isoxazolidin-3-yl]benzonitrile] | 71 nM | 862 nM
Cc1ncn(C[C@H]2CC[C@H](C(=O)N3OCC[C@H]3c3cncc(F)c3)CC2)c1C#N [compound 4, trans-1-((4-((S)-3-(5-fluoropyridin-3-yl)isoxazolidine-2-carbonyl)cyclohexyl)methyl)-4-methyl-1H-imidazole-5-carbonitrile] | 116 nM | 721 nM
N#Cc1ccc2c(c1)ncn2C[C@H]1CC[C@H](C(=O)N2OCC[C@H]2c2cncc(F)c2)CC1 [compound 6, trans-1-((4-((S)-3-(5-fluoropyridin-3-yl)isoxazolidine-2-carbonyl)cyclohexyl)methyl)-1H-benzo[d]imidazole-5-carbonitrile] | 154 nM | 377 nM
COc1cc(C[C@H]2CC[C@H](C(=O)N3OCC[C@H]3c3csc(C)n3)CC2)cn2nc(C)nc12 [compound 367, trans-[4-(8-Methoxy-2-methyl-[1,2,4]triazolo[1,5-a]pyridin-6-ylmethyl)-cyclohexyl]-[(S)-3-(2-methyl-thiazol-4-yl)-isoxazolidin-2-yl]-methanone] | 94 nM | –
Cc1cnc([C@@H]2CCON2C(=O)[C@H]2CC[C@H](Cc3cnc4c(C)nn(C)c4c3)CC2)cn1 [compound 410, [4-[(1,3-dimethylpyrazolo[4,3-b]pyridin-6-yl)methyl]cyclohexyl]-[(3S)-3-(5-methylpyrazin-2-yl)-1,2-oxazolidin-2-yl]methanone] | 80 nM | –

Molecules with a lower IC50 [1], results first:

IC50 [1] | SMILES | IC50 (U937 cells)
26 nM | Cc1cc(C[C@H]2CC[C@H](C(=O)N3OCCC3c3cnccn3)CC2)c(C)cn1 (stereo in doubt) [compound 356, trans-[4-(2,5-Dimethyl-pyridin-4-ylmethyl)-cyclohexyl]-((S)-3-pyrazin-2-yl-isoxazolidin-2-yl)-methanone] | 5 nM
25 nM | NC(=O)c1ccc2cnn(C[C@H]3CC[C@H](C(=O)N4OCC[C@H]4c4cnccn4)CC3)c2c1 [Compound 229, trans-1-[[4-[(3S)-3-pyrazin-2-ylisoxazolidine-2-carbonyl]cyclohexyl]methyl]indazole-6-carboxamide] | 78 nM
15 nM | N#Cc1cc(F)cc([C@@H]2CCON2C(=O)[C@H]2CC[C@H](Cc3cc(F)cc(CO)c3)CC2)c1 [Compound 256, trans-3-fluoro-5-[(3S)-2-[4-[[3-fluoro-5-(hydroxymethyl)phenyl]methyl]cyclohexanecarbonyl]isoxazolidin-3-yl]benzonitrile] | 1 nM
21 nM | Cc1nc2cc(C[C@H]3CC[C@H](C(=O)N4OCC[C@H]4c4cccc(C#N)c4)CC3)ccn2n1 [compound 1, trans-3-[(3S)-2-[4-[(2-methyl-[1,2,4]triazolo[1,5-a]pyridin-7-yl)methyl]cyclohexanecarbonyl]isoxazolidin-3-yl]benzonitrile] | 29 nM
33 nM | N#Cc1cc(F)cc([C@@H]2CCON2C(=O)[C@H]2CC[C@H](Cn3ccc4ncc(C#N)cc43)CC2)c1 [compound 2, trans-1-((4-((S)-3-(3-cyano-5-fluorophenyl)isoxazolidine-2-carbonyl)cyclohexyl)methyl)-1H-pyrrolo[3,2-b]pyridine-6-carbonitrile] | 9 nM
22 nM | N#Cc1cnc2ccn(C[C@H]3CC[C@H](C(=O)N4OCC[C@H]4c4cncc(F)c4)CC3)c2c1 [compound 3, trans-1-((4-((S)-3-(5-fluoropyridin-3-yl)isoxazolidine-2-carbonyl)cyclohexyl)methyl)-1H-pyrrolo[3,2-b]pyridine-6-carbonitrile] | 18 nM
45 nM | N#Cc1cc(F)cc([C@@H]2CCON2C(=O)[C@H]2CC[C@H](Cn3cnc4cc(C#N)ccc43)CC2)c1 [compound 5, trans-1-((4-((S)-3-(3-cyano-5-fluorophenyl)isoxazolidine-2-carbonyl)cyclohexyl)methyl)-1H-benzo[d]imidazole-5-carbonitrile] | 244 nM
15 nM | N#Cc1cc(F)cc([C@@H]2CCON2C(=O)[C@H]2CC[C@H](Cn3cnc4ccccc43)CC2)c1 [compound 7, trans-3-((S)-2-(4-((1H-benzo[d]imidazol-1-yl)methyl)cyclohexane-1-carbonyl)isoxazolidin-3-yl)-5-fluorobenzonitrile] | 9 nM
19 nM | O=C([C@H]1CC[C@H](Cn2cnc3ccccc32)CC1)N1OCC[C@H]1c1cc(F)cc(F)c1 [compound 8, trans-(4-((1H-benzo[d]imidazol-1-yl)methyl)cyclohexyl)((S)-3-(3,5-difluorophenyl)isoxazolidin-2-yl)methanone] | 6 nM
20 nM | N#Cc1cc(F)cc([C@@H]2CCON2C(=O)[C@H]2CC[C@H](Cc3ccc(F)c(C#N)c3)CC2)c1 [compound 244, trans-5-[[4-[(3S)-3-(3-cyano-5-fluoro-phenyl)isoxazolidine-2-carbonyl]cyclohexyl]methyl]-2-fluoro-benzonitrile] | –
35 nM | COc1cc(CC2CCC(C(=O)N3OCC[C@H]3c3cnccn3)CC2)cn2nc(C)nc12 (stereo partly drawn) [compound 314, [4-[(8-methoxy-2-methyl-[1,2,4]triazolo[1,5-a]pyridin-6-yl)methyl]cyclohexyl]-[(3S)-3-pyrazin-2-yl-1,2-oxazolidin-2-yl]methanone] | –
